This assay deals with T1, AFS (Malus domestica, UniProt Q84LB2).
T1 construct: gene AFS1; N-terminal SUMO fusion, pET28a, E. coli BL21(DE3), Ni-NTA purified
T1 sequence (Q84LB2 1-576): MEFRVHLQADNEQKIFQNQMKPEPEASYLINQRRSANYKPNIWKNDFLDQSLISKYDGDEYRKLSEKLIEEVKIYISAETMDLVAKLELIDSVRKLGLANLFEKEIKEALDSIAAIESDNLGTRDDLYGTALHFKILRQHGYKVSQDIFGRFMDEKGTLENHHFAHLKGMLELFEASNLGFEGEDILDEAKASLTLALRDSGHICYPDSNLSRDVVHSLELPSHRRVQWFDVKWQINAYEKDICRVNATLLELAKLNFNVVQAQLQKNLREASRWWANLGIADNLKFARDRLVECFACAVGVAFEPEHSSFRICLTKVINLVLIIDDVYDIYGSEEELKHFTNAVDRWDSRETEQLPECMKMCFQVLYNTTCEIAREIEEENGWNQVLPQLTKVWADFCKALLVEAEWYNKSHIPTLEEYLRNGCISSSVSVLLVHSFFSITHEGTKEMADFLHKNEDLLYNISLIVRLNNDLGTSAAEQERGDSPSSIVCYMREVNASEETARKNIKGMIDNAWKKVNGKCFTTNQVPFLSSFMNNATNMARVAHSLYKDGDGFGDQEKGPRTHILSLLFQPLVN
Put plainly: GC-MS of alpha-farnesene; FPP formed in situ from IPP by IDI and ISPA. To be noted: 100 mM Hepes pH 7.5, 2 mM IPP, room temperature. Type of assay: biochemical.

Structures are written as SMILES.

Consider `CC(C)=CCC/C(C)=C/CC/C(C)=C/COP(=O)(O)OP(=O)(O)O` [farnesyl pyrophosphate], for which the “GC-MS of alpha-farnesene; FPP formed in situ from IPP by IDI and ISPA” value was “the yield of AFS was greater than that of MdF, with an α-farnesene yield”.

Values taken from publication PMC11286291, “A Light-Driven In Vitro Enzymatic Biosystem for the Synthesis of α-Farnesene from Methanol” (Biodesign Research, 2024).
